Columns and labels:
[1] = Highest frequency of moderate liver toxicity observed during clinical trials, expressed as a percentage. [column '% BIOL' in source]; settings: human
[2] = Highest frequency of acute liver toxicity observed during clinical trials, expressed as a percentage. [column '% AIGUE' in source]; settings: human
[3] = Times to onset, minimal and maximal, observed in the indexed observations. [column 'DELAI' in source]; settings: human
[4] = human, serum
[5] = human, serum; remark: listed apart in the source
[6] = human
[7] = human; remark: listed apart in the source
[8] = human; remark: listed apart in the source
[9] = human, serum, 4383 h
[10] = human; remark: listed apart in the source
[11] = human; remark: listed apart in the source
[12] = human; remark: listed apart in the source
[13] = human; remark: listed apart in the source
[14] = human; remark: listed apart in the source
[15] = human; remark: listed apart in the source
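Wherever Hepatotoxicity (association with vascular disease) is given: count of indexed literature references reporting vascular liver injury in humans, e.g. peliosis hepatitis, hepatic veno-occlusive disease or Budd-Chiari syndrome.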
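Wherever Hepatotoxicity (benign tumour) is given: value is a count of indexed literature references citing a benign tumour confirmed by histopathology.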
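Wherever Hepatotoxicity (choleostasis) is given: human cholestatic liver injury, shown by histopathology or by peak ALT or AST elevation over alkaline phosphatase ratio below 2, value counts indexed literature reports.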
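Wherever Hepatotoxicity (chronic liver disease) is given: chronic liver injury confirmed by histopathology or persistently raised serum aminotransferase activity beyond 6 months, value given as the count of indexed literature references.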
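Wherever Hepatotoxicity (cirrhosis) is given: value is a count of indexed literature references reporting cirrhosis confirmed by histopathology.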
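Wherever Hepatotoxicity (cytolytic) is given: human cytolytic liver injury, shown by histopathology or by a ratio above 5 of peak ALT or AST elevation to alkaline phosphatase elevation, value counts indexed references.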
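Wherever Hepatotoxicity (granulomatous hepatitis) is given: value is a count of indexed literature references reporting granulomatous liver disease confirmed by histopathology.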
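Wherever Hepatotoxicity (malignant tumour) is given: malignant tumour confirmed by histopathology, value gives the count of indexed literature references reporting it.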
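Wherever Hepatotoxicity (severe hepatitis) is given: human clinical data: severe hepatitis, meaning potentially life-threatening liver failure or clinically observed cases, the value counts how many indexed literature references report it.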
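Wherever Hepatotoxicity (steatosis) is given: steatosis confirmed by histopathology, value is the count of indexed references.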

Row | Compound | Hepatotoxicity (moderate) [1] [%] | Hepatotoxicity (acute) [2] [%] | Hepatotoxicity (time to onset) [3] | Hepatotoxicity (moderate) [4] | Hepatotoxicity (acute) [5] | Hepatotoxicity (cytolytic) [6] | Hepatotoxicity (choleostasis) [7] | Hepatotoxicity (severe hepatitis) [8] | Hepatotoxicity (chronic liver disease) [9] | Hepatotoxicity (cirrhosis) [10] | Hepatotoxicity (granulomatous hepatitis) [11] | Hepatotoxicity (association with vascular disease) [12] | Hepatotoxicity (steatosis) [13] | Hepatotoxicity (malignant tumour) [14] | Hepatotoxicity (benign tumour) [15]
1 | CCCCC(=O)N(Cc1ccc(-c2ccccc2-c2nnn[nH]2)cc1)[C@H](C(=O)O)C(C)C | 0 | 0 | 1 month - 4.5 months | 2 | 3 | 1 | 1 | 1 | 0 | 0 | 0 | 0 | 0 | 0 | 0
2 | COc1ccc(CCN(C)CCCC2(c3ccc(OC)c(OC)c3)S(=O)(=O)CCCS2(=O)=O)cc1OC | 6.7 | 0 | 1 month | 2 | 1 | 0 | 1 | 0 | 0 | 0 | 0 | 0 | 0 | 0 | 0
3 | CCN(CC)C(=O)C1(c2ccccc2)CC1CN (configuration not stated) | 0 | 0 | 6 months | 0 | 1 | 1 | 0 | 0 | 0 | 0 | 0 | 0 | 0 | 0 | 0
4 | CC(=O)[C@H]1CC[C@H]2[C@@H]3CC[C@H]4C[C@H](O)CC[C@]4(C)[C@H]3C(=O)C[C@]12C.C[C@]12CC[C@@H](O)C[C@@H]1CC[C@H]1[C@@H]3CC[C@H](C(=O)CO)[C@@]3(C)CC(=O)[C@@H]12 | 15 | 0 | 3 days - 5 days | 1 | 0 | 0 | 0 | 0 | 0 | 0 | 0 | 0 | 0 | 0 | 0
5 | CCCCN/C(=C1/C=C(Cl)C=CC1=O)c1ccccc1Cl | 54.5 | 0 | 1 month | 1 | 1 | 0 | 0 | 0 | 0 | 0 | 0 | 0 | 0 | 0 | 0
6 | CC1(C)S[C@@H]2[C@H](NC(=O)[C@H](C(=O)O)c3ccsc3)C(=O)N2[C@H]1C(=O)O.O=C(O)[C@H]1/C(=C/CO)O[C@@H]2CC(=O)N21 | 33 | 0 | 1 day - 6 weeks | 54 | 2 | 0 | 2 | 1 | 0 | 0 | 0 | 0 | 0 | 0 | 0
7 | C=CC1=C(C(=O)O)N2C(=O)[C@@H](NC(=O)/C(=N\O)c3csc(N)n3)[C@H]2SC1 | 28.6 | 0 | 2 days | 43 | 1 | 0 | 0 | 0 | 0 | 0 | 1 | 0 | 0 | 0 | 0
8 | CC(C)=CCN1CC[C@]2(C)c3cc(O)ccc3C[C@H]1[C@H]2C [(+)-PENTAZOCINE] | 0 | 0 | < 3 months | 0 | 2 | 0 | 0 | 0 | 0 | 0 | 0 | 0 | 0 | 0 | 0
9 | COc1cc2c(cc1OC)C(=O)C(CC1CCN(Cc3ccccc3)CC1)C2 (configuration not stated) [DONEPEZIL] | 0 | 0 | 10 days - 12 days | 0 | 2 | 0 | 2 | 0 | 0 | 0 | 0 |  | 0 | 0 | 0
10 | O=C(O)CCc1nc(-c2ccccc2)c(-c2ccccc2)o1 [OXAPROZIN] | 20 | 0.1 | 2 weeks - 6 months | 4 |  | 2 | 0 | 1 | 0 | 0 | 0 | 0 | 0 | 0 | 0
11 | C[C@@H](c1ncncc1F)[C@](O)(Cn1cncn1)c1ccc(F)cc1F [VORICONAZOLE] | 9.5 | 0 | 1 day - 1 year | 10 |  | 1 | 1 | 1 | 0 | 0 | 0 | 0 | 0 | 0 | 0
